Values quoted from earlier work, collected in PMC4207555 (Drug Design, Development and Therapy, 2014).
Like-named read-outs stand apart in the source and are kept apart here.

Experiments:
microtubules = conditions: read-out: stabilization of microtubules against cold-induced depolymerization (concentration producing 50% cell killing)
[1] = tested on: P-glycoprotein-expressing cell lines bearing acquired resistance; conditions: range across P-glycoprotein-expressing cell lines
[2] = tested on: cell lines with resistance mechanisms other than P-glycoprotein overexpression
[3] = ref Sanofi, data on file, 2010
[4] = not given; remark: listed apart in the source
[5] = rats, ref Sanofi, data on file, 2010
[6] = dogs, ref Sanofi, data on file, 2010
plasma protein [7] = conditions: mice; ref Sanofi, data on file, 2010
plasma protein [8] = conditions: rats; ref Sanofi, data on file, 2010
plasma protein [9] = conditions: rabbits; ref Sanofi, data on file, 2010
plasma protein [10] = conditions: dogs; ref Sanofi, data on file, 2010
plasma protein [11] = conditions: humans; ref Sanofi, data on file, 2010
[12] = mice
[13] = not given; remark: listed apart in the source
[14] = dogs
[15] = humans
B16/TXT melanoma = conditions: B16/TXT acquired-resistance model, no P-glycoprotein overexpression
Prostate DU 145 = conditions: DU145 xenograft
Breast Calc18/TXT = conditions: P-glycoprotein-overexpressing Calc18/TXT
Breast UISO BCA-1 = conditions: UISO BCA-1, dose level below HNTD (9.3 mg/kg per injection)
HID28 = conditions: for percentage tumor volume change (treated/control mean tumor volume): Day 35
[16] = mice, ref Sanofi, data on file; for NOEL for central neurotoxicity / NOEL for peripheral neurotoxicity: 2010
[17] = rats, ref Sanofi, data on file; for HNLD as single dose: 2013
[18] = dogs; ref Sanofi, data on file, 2013
[19] = in situ brain perfusion, wild-type mice; ref 47 (unpublished data)
[20] = tested on: bacterial reverse mutation; conditions: ref Sanofi, data on file, 2010
[21] = ref Sanofi, data on file, 2010; remark: listed apart in the source
bone marrow = conditions: ref Sanofi, data on file, 2010
[22] = male or female rats; ref Sanofi, data on file, 2010
[23] = not given; remark: listed apart in the source
[24] = tested on: mCRPC that had progressed on previous docetaxel-based therapy; conditions: for median overall survival / median progression-free survival: plus prednisone/prednisolone
[25] = after IV administration; ref Sanofi, data on file, 2010
[26] = tested on: human intracranial glioblastoma xenograft; conditions: two models, respective HNTDs
[27] = tested on: pediatric sarcoma xenograft; conditions: five of six models
[28] = not given; remark: listed apart in the source
[29] = single-dose studies in mice, rats, and dogs; ref Sanofi, data on file, 2013
[30] = Phase III clinical studies in a number of tumor types
[31] = 0–48 hours, mice bearing subcutaneous MA16/C

CO[C@H]1C(=O)[C@]2(C)[C@@H](OC)C[C@H]3OC[C@@]3(OC(C)=O)[C@H]2[C@H](OC(=O)c2ccccc2)[C@]2(O)C[C@H](OC(=O)[C@H](O)[C@@H](NC(=O)OC(C)(C)C)c3ccccc3)C(C)=C1C2(C)C [Cabazitaxel]
lag time to 50% aggregation (reduction in lag time for tubulin assembly) (tubulin): 0 to 0.1 µmol/L
IC50 (microtubules): 0.1 to 0.25 µM
Resistance factors [1]: 2–10
cross-resistance [2]: no cross-resistance
logP: 3.9
volume of distribution at steady state ([3]; healthy mice, single IV administration): 2.5 to 3.7 L/kg
Plasma clearance ([3]; normal mice, single IV infusion): 0.9 to 1.1 L/h/kg
terminal half-life ([3]; normal mice): 5.1 to 7.6 h
overall brain exposure relative to plasma [4, 31]: 3.7 fold
overall brain exposure relative to tumor tissue [4, 31]: 2.3 fold
time to maximum drug concentrations in tumor tissue ([4]; MA16/C-bearing mice, 40 mg/kg): ≤ 15 min
concentration within the tumor versus plasma ([4]; after 48 hours, MA16/C-bearing mice, 40 mg/kg): 40 fold
exposure in tumor compared with plasma ([4]; during the 48 hours following administration, 40 mg/kg): 1.6 times
exposure in tumor compared with plasma ([4]; entire experimental period (168 hours), 40 mg/kg): 2.9 times
volume of distribution at steady state ([4]; tumor-bearing mice, single IV administration, ref Sanofi, data on file, 2010): 8.8 L/kg
Plasma clearance ([4]; tumor-bearing mice, single IV infusion, ref Sanofi, data on file, 2010): 1.7 L/h/kg
terminal half-life ([4]; tumor-bearing mice, ref Sanofi, data on file, 2010): 26 h
volume of distribution at steady state ([5]; single IV administration): 22.7 L/kg
Plasma clearance ([5]; single IV infusion): 4.8 L/h/kg
terminal half-life [5]: 10 h
volume of distribution at steady state ([6]; single IV administration): 3.3 to 14.5 L/kg
Plasma clearance ([6]; single IV infusion): 2.5 to 5.3 L/h/kg
terminal half-life [6]: 3.0 to 4.3 h
Plasma protein binding (plasma protein [7]): 99.3%
Plasma protein binding (plasma protein [8]): 95.5%
Plasma protein binding (plasma protein [9]): 91.4%
Plasma protein binding (plasma protein [10]): 97.1%
Plasma protein binding (plasma protein [11]): 91.9%
pathway C (t-butyl-hydroxylation on the lateral chain), share of the dose [12]: 41%
two O-demethylation pathways (A and B), share of the dose excreted [12]: 45%
radioactivity excreted via the biliary route, % of the administered dose ([13]; bile-duct-cannulated male rats, within 48 hours): 65%
pathway C (t-butyl-hydroxylation on the lateral chain), share of the dose excreted ([13]; male and female rats): 49%–55
two O-demethylation pathways (A and B), share of the dose excreted [14]: 54%
pathway C (t-butyl-hydroxylation on the lateral chain), share of the dose [15]: 21%
two O-demethylation pathways (A and B), share of the dose excreted [15]: 40%
antitumor activity (B16/TXT melanoma): demonstrated antitumor activity
complete tumor regressions (CR) (Prostate DU 145): 100%
long-term tumor-free survival (TFS) (Prostate DU 145): 83%
antitumor activity (Breast Calc18/TXT): not active
log cell kill (Breast UISO BCA-1): 4.4
partial remissions (HID28; HID28, 20 mg/kg): four out of ten
percentage tumor volume change (treated/control mean tumor volume) (HID28; HID28, 20 mg/kg): 1.4%
NOEL for central neurotoxicity ([16]; 5-day, 1 min infusion): >7 mg/kg/day
NOEL for peripheral neurotoxicity ([16]; 5-day, 1 min infusion): 3 mg/kg/day
NOEL for central neurotoxicity ([16]; five-cycle, 1 hr infusion): 10 mg/kg/day
NOEL for peripheral neurotoxicity ([16]; five-cycle, 1 hr infusion): 5 mg/kg/day
NOEL for central neurotoxicity ([16]; single-dose, 1 min infusion): 10 mg/kg/day
NOEL for peripheral neurotoxicity ([16]; single-dose, 1 min infusion): 10 mg/kg/day
NOEL for central neurotoxicity ([16]; single-dose, 1 hr infusion): 10 mg/kg/day
NOEL for central neurotoxicity ([16]; weekly, 1 min infusion): 5 mg/kg/day
NOEL for peripheral neurotoxicity ([16]; weekly, 1 min infusion): 5 mg/kg/day
HNLD as single dose [16]; 2013: 30 mg/kg
NOEL for central neurotoxicity ([17]; single-dose, 1 min infusion, 2010): >10 mg/kg/day
NOEL for central neurotoxicity ([17]; ten-cycle, 1 hr infusion, 2010): >10/20
NOEL for peripheral neurotoxicity ([17]; ten-cycle, 1 hr infusion, 2010): <1 mg/kg/day
HNLD as single dose [17]: 2.5 mg/kg
HNLD as single dose [18]: 0.5 mg/kg
uptake across the BBB, P-glycoprotein-deficient versus control mice (P-glycoprotein): threefold higher
brain penetration versus paclitaxel or docetaxel [19]: two- to threefold greater
mutations in the bacterial reverse mutation (Ames) test [20]: did not induce mutations
in vitro chromosome aberration test [21]: increased number of polyploid cells
in vivo rat bone marrow micronucleus test (bone marrow): increase in micronuclei
mating performance or fertility [22]: did not affect
population half-life, initial phase ([23]; 170 patients): 4.4 min
population half-life, intermediate phase ([23]; 170 patients): 1.6 h
population half-life, terminal phase ([23]; 170 patients): 95.1 h
mean volume of distribution at steady state (population PK estimate) ([23]; median BSA 1.84 m^2): 2,640 L/m^2
plasma clearance (population PK estimate) ([23]; median BSA 1.84 m^2): 26.4 L/h/m^2
grade ≥3 anemia, patients [24]: 11%
grade ≥3 diarrhea [24]: 6%
grade ≥3 leukopenia, patients [24]: 68%
grade ≥3 neutropenia, patients [24]: 82%
patients who died within 30 days of the last infusion [24]: 5%
patients with dose reduction [24]: 12%
patients with treatment delay [24]: 28%
peripheral neuropathy, patients [24]: 14%
prostate-specific antigen response [24]: 39.2%
rate of objective tumor response [24]: 14.4%
median overall survival [24]: 15.1 months
median progression-free survival [24]: 2.8 months
grade 3 peripheral neuropathy, patients ([24]; three patients): 1%
hazard ratio, death ([24]; versus mitoxantrone): 0.70
hazard ratio, progression-free survival ([24]; versus mitoxantrone): 0.74
reduction in the risk of death ([24]; versus mitoxantrone): 30%
effects in CNS, respiratory, gastrointestinal, renal, and cardiovascular systems [25]: no physiologically relevant effects
antitumor activity (increase in life span) versus docetaxel [26]: enhanced antitumor activity compared with docetaxel
tumor growth inhibition and tumor regression versus equivalent doses of docetaxel [27]: significantly greater tumor growth inhibition and tumor regression
pathway D (cleavage of the parent drug), share of the dose ([28]; all species including humans): < 0.3%
excretion via the urinary route ([28]; mice, rats, and dogs): 1%–4
excretion, % of the administered dose ([28]; mice, rats, and dogs): 91%–95
radioactivity excreted in the feces, % of the administered dose ([28]; mice, rats, and dogs): 87%–91
administered dose excreted unchanged ([28]; mice, rats, dogs, and humans): less than 2.5%
highest non-lethal doses, times lower with cabazitaxel than with docetaxel [29]: 3- to 4 times

CC(=O)O[C@@]12CO[C@@H]1C[C@H](O)[C@@]1(C)C(=O)[C@H](O)C3=C(C)[C@@H](OC(=O)[C@H](O)[C@@H](NC(=O)OC(C)(C)C)c4ccccc4)C[C@@](O)([C@@H](OC(=O)c4ccccc4)[C@H]21)C3(C)C [Docetaxel, reference compound]
lag time to 50% aggregation (reduction in lag time for tubulin assembly) (tubulin): 0 to 0.1 µmol/L
IC50 (microtubules): 0.1 to 0.25 µM
Resistance factors [1]: 5–59
logP: 3.2
administered dose of 14C excreted in the feces ([15]; over 7 days): 80%
administered dose of 14C recovered in the urine ([15]; over 7 days): approximately 5%
percentage tumor volume change (treated/control mean tumor volume) (HID28; HID28, 20 mg/kg): 16.7%
HNLD as single dose [17]: 10 mg/kg
incidence of grade 3/4 sensory neuropathy [30]: 0%–7

CC(=O)O[C@H]1CC[C@@]2(C)C(=CC[C@@H]3[C@@H]2CC[C@]2(C)C(c4cccnc4)=CC[C@@H]32)C1 [abiraterone acetate, reference compound]
antitumor activity (HID28; HID28, 50 mg/kg orally daily for 21 days): No antitumor activity

O=C1c2c(O)ccc(O)c2C(=O)c2c(NCCNCCO)ccc(NCCNCCO)c21 [mitoxantrone, reference compound]
prostate-specific antigen response [24]: 17.8%
rate of objective tumor response [24]: 4.4%
median overall survival [24]: 12.7 months
median progression-free survival [24]: 1.4 months
